From US20220380383A1, “NEUROPROTECTIVE PDI MODULATING SMALL MOLECULES AND METHODS OF USE THEREOF” (THE TRUSTEES OF COLUMBIA UNIVERSITY IN THE CITY OF NEW YORK, priority 2018, published 2022)
Converted amounts (≈) assume the structure as drawn. Where two headings read alike, the source gives them in different places.

Tests used:
[1] = biological target: T1, human catalytic PDI A1 a domain (PDIa) (Homo sapiens, UniProt P07237); assay: Isothermal titration calorimetry (ITC) binding to PDIa
T1 construct: made in house; host or cells: Escherichia coli BL21-Gold (DE3)
Method: All ITC experiments were carried out at 25° C. on MicoCal Auto-ITC200 system (GE Healthcare). […] ITC titration experiments were carried out at 25° C. with 19 injections, 2 μl per injection, and 180 seconds between each injection. The reference cell power was set to 5 μcal/sec. A control experiment was performed for each compound, where each compound was titrated into buffer to account for heat released due to dilution. This background was subtracted from test data before a final dissociation constant was obtained. […] Gibbs free energy, ΔG, was calculated from equation ΔG=ΔH-TΔS. All other parameters, Ka, n, ΔH, ΔS, were determined directly from the titration data.
LOC14 analogs were designed and synthesized as described in the synthetic schemes. The analogs were evaluated for their binding to PDIa using isothermal titration calorimetry (ITC) (results of certain compounds are shown in FIGS. 1A-1E). Next, the analogs were tested for their ability to rescue PC12 cells from mHTT^Q103 induced cell death in a dose-dependent manner (results of certain compounds are shown in FIG. 2).

PC12 mHTTQ103 cells = assay: Rescue of PC12 cells from mHTTQ103-induced cell death; assay type: cell-based, rat; conditions: for EC50: Rattus norvegicus, PC-12
[2] = Solubility (stock solvent)
[3] = Tables 5-13, NA = not active, read-out: Kd
[4] = Tables 5-13, PC12 cells, read-out: EC50
[5] = rescue from mHTTQ103 induced cell death, read-out: PC12 cells EC50
[6] = rescue from mHTTQ103 induced cell death
[7] = Tables 5-13, solvent not given (DMSO in Table 1)
[8] = N/A = not active, read-out: ITC KD

T1 sequence (P07237 18-134): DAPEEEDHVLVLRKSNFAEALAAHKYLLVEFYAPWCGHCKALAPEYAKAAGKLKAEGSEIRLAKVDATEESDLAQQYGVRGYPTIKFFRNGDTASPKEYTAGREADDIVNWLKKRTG

Row | Structure (SMILES) | Kd [1, 3] | EC50 (PC12 mHTTQ103 cells; [4]) | EC50 (PC12 mHTTQ103 cells; [5]) | Max Viability (%) (PC12 mHTTQ103 cells; Tables 5-13, PC12 cells) | PC12 cells Max % Viability (PC12 mHTTQ103 cells; [6]) | Solubility [2] | Solubility [2, 7] | ITC KD ([1]; N/A = not active) | PC12 cells EC50 (PC12 mHTTQ103 cells; [6]) | Solubility ([2]; in water) | Kd [1, 8] | Kd ([1]; two-site binding, first site, read-out: ITC KD1) | Kd ([1]; two-site binding, second site, read-out: ITC KD2)
1 | C[C@H](c1ccccc1)n1sc2ccccc2c1=O [LC-29] | 658 nM | 669 nM | 669 nM | 42% | 42.02% | 100 mM in DMSO | 100 mM (≈ 25.5 mg/mL) |  |  |  |  |  | 
2 | O=C(Nc1cccc(F)c1)c1ccccc1S [LC-30] |  | 2990 nM |  | 62% | 62.38% | 100 mM in DMSO | 100 mM (≈ 24.7 mg/mL) | KD = N/A irreversible or not active |  |  |  |  | 
3 | O=c1c2ccccc2sn1-c1cccc(F)c1 [LC-31] |  | 1760 nM |  | 36% | 36.24% | 100 mM in DMSO | 100 mM (≈ 24.5 mg/mL) | KD = N/A irreversible or not active |  |  |  |  | 
4 | COCCn1sc2ccccc2c1=O [LC-32] | 158 nM | 700 nM |  | 42% | 41.96% | 100 mM in DMSO | 100 mM (≈ 20.9 mg/mL) |  |  |  |  |  | 
5 | O=C(Nc1ccc(Oc2ccccc2)cc1)c1ccccc1S [LC-33] |  | 2940 nM |  | 54% | 54.43% | 100 mM in DMSO | 100 mM (≈ 32.1 mg/mL) | KD = N/A irreversible or not active |  |  |  |  | 
6 | Cc1ccc(NC(=O)c2ccccc2S)c(Br)c1 [LC-34] |  | 3770 nM |  | 42% | 41.95% | 100 mM in DMSO | 100 mM (≈ 32.2 mg/mL) | KD = N/A irreversible or not active |  |  |  |  | 
7 | Cn1sccc1=O [LC-35] |  |  |  | 15% | 14.63% |  | 100 mM (≈ 11.5 mg/mL) | KD = N/A irreversible or not acitve | Not Active | 100 mM in water |  |  | 
8 | O=c1c2ccccc2sn1-c1ccc(Oc2ccccc2)cc1 [LC-37] |  | 1680 nM |  | 22% | 21.77% | 100 mM in DMSO | 100 mM (≈ 31.9 mg/mL) | KD = N/A irreversible or not active |  |  |  |  | 
9 | O=c1[nH]sc2c(Cl)cccc12 [LC-38] |  |  |  | 8% | 7.63% | 100 mM in DMSO | 100 mM (≈ 18.6 mg/mL) | KD = N/A irreversible or not active | Not Active |  |  |  | 
10 | O=C(C1CC1)N1CCN(Cn2sc3c(Cl)cccc3c2=O)CC1 [LC-39] |  |  |  | 7% | 7.02% | 100 mM in DMSO | 100 mM (≈ 35.2 mg/mL) | KD = N/A irreversible or not active | Not Active |  |  |  | 
11 | O=c1[nH]sc2c(C(F)(F)F)cccc12 [LC-41] |  |  |  | 9% | 9.16% | 100 mM in DMSO | 100 mM (≈ 21.9 mg/mL) | KD = N/A irreversible or not active | Not Active |  |  |  | 
12 | O=C(C1CC1)N1CCN(Cn2sc3c(C(F)(F)F)cccc3c2=O)CC1 [LC-42] |  |  |  | 8% | 8.17% | 100 mM in DMSO | 100 mM (≈ 38.5 mg/mL) | KD = N/A irreversible or not active | Not Active |  |  |  | 
13 | NC(=O)c1cccc(F)c1SSc1c(F)cccc1C(N)=O [LC-44, 2,2′-disulfanediylbis(3-fluorobenzamide)] |  |  |  |  | 87.19% | 100 mM in DMSO |  | KD = N/A irreversible or not active |  |  |  |  | 
14 | NC(=O)c1cccc(C(F)(F)F)c1SSc1c(C(N)=O)cccc1C(F)(F)F [LC-45] |  |  |  |  | 16.98% | 100 mM in DMSO |  | KD = N/A irreversible or not active | Not Active |  |  |  | 
15 | O=c1ssc2ccccc12 [LC-48] |  |  |  | 8% | 8.14% | 100 mM in DMSO | 100 mM (≈ 16.8 mg/mL) | KD = N/A irreversible or not active | Not Active |  |  |  | 
16 | S=c1ssc2ccccc12 [LC-49] |  |  |  | 9% | 8.75% | 100 mM in DMSO | 100 mM (≈ 18.4 mg/mL) | KD = N/A irreversible or not active | Not Active |  |  |  | 
17 | O=c1c2cccnc2sn1CCN1CCCCC1 [LC-54] | ≤ 20 nM |  |  | 11% | 10.67% | 100 mM in DMSO | 100 mM (≈ 26.3 mg/mL) |  | Not Active |  | < 20 nM |  | 
18 | O=c1c2cccnc2sn1CCN1CCOCC1 [LC-55] | 20 nM |  |  | 13% | 13.20% | 100 mM in DMSO | 100 mM (≈ 26.5 mg/mL) |  | Not Active |  | 20.1 nM |  | 
19 | O=c1c2cccnc2sn1CCC1CCNCC1 [LC-56] |  |  |  | 14% | 14.03% | 100 mM in DMSO | 100 mM (≈ 26.3 mg/mL) | KD = N/A irreversible or not active | Not Active |  |  |  | 
20 | Cc1nnc2s[nH]c(=O)c2c1C [LC-57, 4,5-dimethylisothiazolo[5,4-c]pyridazin-3(2H)-one] | 18 nM | 12200 nM |  | 54% | 54.15% | 100 mM in DMSO | 100 mM (≈ 18.1 mg/mL) |  |  |  | 17.5 nM |  | 
21 | C[C@H](c1ccccc1)n1sc2ncccc2c1=O [LC-58, (R)-2-(1-phenylethyl)isothiazolo[5,4-b]pyridin-3(2H)-one] | 0.3 nM |  |  | 14% | 13.62% | 100 mM in DMSO | 100 mM (≈ 25.6 mg/mL) |  | Not Active |  | 0.3 nM |  | 
22 | Cc1ccc2c(=O)[nH]sc2c1 [LC-60, 6-Methylbenzo[d]isothiazol-3(2H)-one] | 347 nM | 562 nM | 562 nM | 60% | 59.49% | 100 mM in DMSO | 100 mM (≈ 16.5 mg/mL) |  |  |  | 347 nM |  | 
23 | Cc1ccc2s[nH]c(=O)c2c1 [LC-61, 5-Methylbenzo[d]isothiazol-3(2H)-one] | 267 nM | 591 nM | 591 nM | 65% | 64.68% | 100 mM in DMSO | 100 mM (≈ 16.5 mg/mL) |  |  |  | 267 nM |  | 
24 | C#CCn1sc2ccccc2c1=O [LC-66, 2-(prop-2-yn-1-yl)benzo[d]isothiazol-3(2H)-one] |  |  | 763 nM |  | 40.34% | 100 mM in DMSO |  |  |  |  |  | 30.7 nM | 14400 nM
